Experimental data published in the supplement of paper PMC10307832.

Legend:
Experiment in all cases: relative viability (nuclei count vs DMSO), 5 days (fraction); higher = more cells survive
[1] = compound: Nc1nc(Nc2ccc3c(c2)CC[C@@H](N2CCCC2)CC3)nn1-c1cc2c(nn1)-c1ccccc1CCC2 [Bemcentinib] + C[C@@H](Oc1cc(-c2cnn(C3CCNCC3)c2)cnc1N)c1c(Cl)ccc(F)c1Cl [Crizotinib] (partner 1 µM)
Outline: (§1)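 Relative viability is defined as nuclei in treated wells over nuclei in vehicle wells. Duplicate plates were run and medians reported. Lung cancer cell lines in 1536-well plates were dosed by pin tool one day after seeding, with one drug or with a fixed anchor-drug dose plus five library-drug doses (not always all listed) in √10 steps, and nuclei were counted after 5 days.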

[2] = compound: Nc1nc(Nc2ccc3c(c2)CC[C@@H](N2CCCC2)CC3)nn1-c1cc2c(nn1)-c1ccccc1CCC2 [Bemcentinib] + CC(=O)Nc1cccc(-n2c(=O)n(C3CC3)c(=O)c3c(Nc4ccc(I)cc4F)n(C)c(=O)c(C)c32)c1 [Trametinib] (partner 0.02 µM)
Outline: as §1

[3] = compound: CC1=CC=C(C=C1)C(=O)CN2C3=C(CCCC3)SC2=N [Pifithrin_alpha] + CS(=O)(=O)CCNCc1ccc(-c2ccc3ncnc(Nc4ccc(OCc5cccc(F)c5)c(Cl)c4)c3c2)o1 [Lapatinib] (partner 2 µM)
Outline: as §1

[4] = compound: Nc1nc(Nc2ccc3c(c2)CC[C@@H](N2CCCC2)CC3)nn1-c1cc2c(nn1)-c1ccccc1CCC2 [Bemcentinib] + CC(=O)c1c(C)c2cnc(Nc3ccc(N4CCNCC4)cn3)nc2n(C2CCCC2)c1=O [Palbociclib] (partner 0.5 µM)
Outline: as §1

Cell Line	relative viability ([1]; first compound 0.04 µM)	relative viability ([1]; first compound 0.1265 µM)	relative viability ([1]; first compound 0.4 µM)	relative viability ([1]; first compound 1.265 µM)	relative viability ([1]; first compound 4 µM)	relative viability ([2]; first compound 0.04 µM)	relative viability ([2]; first compound 0.1265 µM)	relative viability ([2]; first compound 0.4 µM)	relative viability ([2]; first compound 1.265 µM)	relative viability ([2]; first compound 4 µM)	relative viability ([3]; first compound 1 µM)	relative viability ([3]; first compound 3.162 µM)	relative viability ([3]; first compound 10 µM)	relative viability ([3]; first compound 100 µM)	relative viability ([4]; first compound 0.04 µM)	relative viability ([4]; first compound 0.1265 µM)	relative viability ([4]; first compound 0.4 µM)	relative viability ([4]; first compound 1.265 µM)	relative viability ([4]; first compound 4 µM)	relative viability ([3]; first compound 31.62 µM)
NCI-H460	0.976	0.994	0.937	1.04	0.964	0.137	0.185	0.147	0.158	0.259	1.2	1.21	1.1	0.533	0.241	0.147	0.221	0.301	0.199	–
NCI-H727	0.666	1.08	0.743	0.801	0.817	0.39	0.381	0.385	0.424	0.414	0.884	0.903	0.695	0.565	0.625	0.663	0.637	0.696	0.667	0.555
NCI-H838	0.805	0.958	0.906	0.893	0.869	0.501	0.535	0.533	0.432	0.534	1.08	0.908	0.822	0.615	0.226	0.249	0.221	0.205	0.243	0.562
NCI-H1755	0.901	0.878	0.838	0.939	0.901	0.765	0.817	0.818	0.768	0.813	0.96	1.01	0.966	1.23	0.43	0.462	0.425	0.479	0.439	0.812
EMC-BAC-2	0.788	0.801	0.776	0.836	0.831	0.874	0.896	0.873	0.897	0.967	0.87	0.905	0.864	0.928	0.519	0.556	0.507	0.513	0.519	0.623
EKVX	0.973	0.981	1.06	1.03	0.986	0.32	0.372	0.351	0.491	0.34	0.167	0.16	0.139	0.14	0.333	0.362	0.427	0.427	0.405	0.181
NCI-H647	1.13	1.39	1.1	1.12	1.21	0.493	0.545	0.538	0.392	0.634	0.978	0.997	0.975	0.966	0.43	0.445	0.387	0.315	0.462	–
NCI-H358	0.587	0.506	0.511	0.54	0.53	0.12	0.125	0.118	0.134	0.145	0.507	0.447	0.486	0.429	0.135	0.143	0.143	0.137	0.135	0.425
LU99A	0.549	0.629	0.542	0.574	0.532	0.516	0.641	0.55	0.596	0.51	0.852	1.21	1.12	1.18	0.367	0.37	0.422	0.401	0.413	–
NCI-H1734	0.686	0.691	0.669	0.667	0.698	0.679	0.743	0.739	0.625	0.701	1.05	1.08	0.953	1.07	0.345	0.32	0.349	0.345	0.345	0.749
HARA	1.02	1.28	1.22	1.08	1.03	0.769	0.83	0.69	0.67	0.96	0.675	0.625	0.759	0.478	0.211	0.252	0.215	0.314	0.243	0.589
NCI-H2228	–	0.551	0.599	0.467	0.451	0.202	0.652	0.533	0.651	0.565	1.25	1.19	0.848	0.904	0.268	0.827	0.844	0.836	0.997	0.747
HCC-827	0.971	0.867	0.914	1	0.939	0.545	0.548	0.534	0.599	0.586	0.197	0.207	0.235	0.198	0.529	0.537	0.461	0.526	0.471	0.197
EPLC-272H	–	0.96	1.05	0.86	1.01	0.268	0.287	0.329	0.289	0.295	–	0.8	1.05	0.739	0.287	0.309	0.361	0.302	0.34	0.629
SW 1573	0.724	0.814	0.684	0.776	0.764	0.521	0.488	0.658	0.572	0.654	1.1	1.14	1.02	0.81	0.395	0.407	0.416	0.391	0.364	0.798
LXF-289	0.88	0.833	0.817	0.791	0.877	0.705	0.681	0.648	0.7	0.773	0.912	0.979	0.85	0.837	0.633	0.629	0.581	0.558	0.622	0.749
SK-LU-1	0.923	1.09	0.943	1.07	1.09	0.463	0.514	0.493	0.547	0.531	0.937	0.911	0.948	0.935	0.338	0.446	0.393	0.487	0.37	0.599
NCI-H23	0.493	0.608	0.522	0.613	0.482	0.363	0.432	0.353	0.429	0.466	1.26	1.13	1	0.839	0.443	0.472	0.558	0.457	0.519	0.682
CAL-12T	0.394	0.767	0.679	0.62	0.525	0.347	0.321	0.302	0.339	0.372	0.624	0.614	0.696	0.447	0.3	0.59	0.47	0.489	0.45	0.441
A-427	–	0.95	0.843	0.931	0.863	0.711	0.696	0.812	0.773	0.668	0.981	0.877	0.99	1.18	0.55	0.515	0.534	0.532	0.532	0.845
NCI-H2009	1.01	1.08	1.11	0.951	1.05	0.231	0.321	0.232	0.273	0.268	0.368	0.906	0.847	0.813	0.185	0.21	0.225	0.239	0.261	0.457
UMC-11	0.568	0.57	0.589	0.692	0.662	0.558	0.876	0.712	0.779	0.744	1.03	1.06	0.933	1.06	0.354	0.343	0.323	0.349	0.324	0.764
LOU-NH91	0.717	0.726	0.732	0.753	0.756	0.807	0.792	0.849	0.822	0.789	0.576	0.604	0.633	0.493	0.521	0.564	0.525	0.513	0.537	0.492
HOP-62	1.01	1.08	–	0.734	1.03	0.341	0.337	0.402	0.395	0.458	0.886	1.21	0.991	1.23	0.46	0.501	0.485	0.474	0.463	0.714
NCI-H1993	0.913	0.966	0.876	1.03	1.1	0.71	0.394	0.467	0.493	0.482	–	0.761	0.73	0.777	0.62	0.723	0.718	0.651	0.708	0.764
